Measurements: ChEMBL document CHEMBL1759835, “Biotransformation of natural compounds. Oxido-reduction of Sch-642305 by Aspergillus ochraceus ATCC 1009” (Bioorg Med Chem Lett, 2011)

Tests used:
MDA-MB-231 = experiment: Cytotoxicity against human MDA-MB-231 cells assessed as inhibition of cell proliferation after 72 hrs by MTS assay; format: functional, cell-based; settings: MDA-MB-231, 72 h
K562 = experiment: Cytotoxicity against human K562 cells assessed as inhibition of cell proliferation after 72 hrs by MTS assay; format: functional, cell-based; settings: K562, 72 h
Escherichia coli = experiment: Antibacterial activity against Escherichia coli ATCC 25922 at 100 ug by disk inhibition zone method relative to chloramphenicol; format: functional; set-up: scale not given: the % may be the effect or the level left
Bacillus subtilis = experiment: Antibacterial activity against Bacillus subtilis ATCC 6633 at 100 ug by disk inhibition zone method relative to gentamycin; format: functional; set-up: scale not given: the % may be the effect or the level left
Micrococcus luteus = experiment: Antibacterial activity against Micrococcus luteus ATCC 10240 at 100 ug by disk inhibition zone method relative to chloramphenicol; format: functional; set-up: scale not given: the % may be the effect or the level left

SMILES	IC50 (MDA-MB-231) [nM]	IC50 (K562) [nM]	Activity (Escherichia coli) [%]	Activity (Bacillus subtilis) [%]	Activity (Micrococcus luteus) [%]
C[C@H]1CCCC[C@H]2C(=O)C=C[C@H](O)[C@@H]2CC(=O)O1	20	20	0	100	38
C[C@H]1CCCC[C@H]2C(=O)CC[C@H](O)[C@@H]2CC(=O)O1	400	200	50	0	0
C[C@H]1CCCC[C@H]2C(=O)C[C@H](O)[C@H](O)[C@@H]2CC(=O)O1	12	20	0	62.5	0
C[C@H]1CCCC[C@@H]2[C@@H](CC(=O)O1)[C@@H](O)CC[C@@H]2O	40	4	0	0	0
